What was measured:
MMP-9 [1] = assay: Substrate phage display with NGS: relative probability (RP) of P3-P1' tetramer clusters; type: biochemical, human; details: for relative probability (RP) (acc.to MMP9): RP of matching tetramer of the cleavage site, unique part of MMP9 selectome
MMP-2 [2] = assay: N-terminomic (TMT) analysis of MMP-treated HEK293 secretome: isotopic enrichment of novel N-termini; type: biochemical, human; details: HEK293 secretome, 750 nM MMP-2, 2 h, 37 C; TMT reporter ratio vs untreated control, LC-MS/MS, duplicate
MMP-9 [3] = assay: as above; type: biochemical, human; details: for isotopic enrichment (log2(ratio)) (acc.to MMP9): HEK293 secretome, 750 nM MMP-9, 2 h, 37 C, TMT reporter ratio vs untreated control, LC-MS/MS, duplicate; for isotopic enrichment (log2(ratio)): MMP9 cleavages in HEK293 cell proteins, determined by LC-MS/MS, log2(ratio) range (>3σ, 2σ-3σ, 1σ-2σ)
MMP-2 [4] = assay: Substrate phage display with NGS: relative probability (RP) of P3-P1' tetramer clusters; type: biochemical, human; details: for relative probability (RP) (acc.to MMP2): RP of matching tetramer of the cleavage site, unique part of MMP9 selectome
MMP-9 [5] = biological target: MMP-9 (Homo sapiens, UniProt P14780); assay: kcat/KM of synthetic peptides derived from substrate phage selections; type: biochemical; set-up: The recombinant catalytic domains of MMP-2 and -9 were expressed in HEK293 cells; made in house; host or cells: HEK293 cells, stably transfected; purified from serum-free medium on Gelatin Sepharose 4B; details: MMP9; 100 set of synthetic hexamer peptide substrates; mean, SD and SEM in columns of their own
MMP-9 (Homo sapiens, UniProt P14780), sequence (P14780 94-444 limits assumed): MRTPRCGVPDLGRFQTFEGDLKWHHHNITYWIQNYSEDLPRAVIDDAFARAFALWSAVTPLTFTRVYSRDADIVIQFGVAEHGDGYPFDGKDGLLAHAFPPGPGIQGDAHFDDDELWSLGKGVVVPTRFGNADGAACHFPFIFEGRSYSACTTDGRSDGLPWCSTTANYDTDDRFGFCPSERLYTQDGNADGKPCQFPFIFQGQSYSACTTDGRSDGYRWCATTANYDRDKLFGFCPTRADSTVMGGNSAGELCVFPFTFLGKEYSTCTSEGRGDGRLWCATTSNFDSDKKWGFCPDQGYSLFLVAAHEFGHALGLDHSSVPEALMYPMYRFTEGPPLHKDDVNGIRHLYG
Description: (§1) K(obs) obtained for each of the 1369 substrates has a range of 0 and 12,792 (M^-1 s^-1) due to the experimental conditions used in the study. So, all substrates with the true K(obs) above this value will nevertheless have a K(obs) equal to the preset maximum. With this limitation in mind, we corroborated the results using synthetic peptides, thereby extending the correlation to the entire range of kcat/KM values for each MMP. We performed a correlation analysis using a set of 100 peptides with sequences derived from substrate phage selections and their kcat/KM values were experimentally determined as described in [27] (S8 Table).
(§2) The recombinant catalytic domains of MMP-2 and -9 were expressed in HEK293 cells stably transfected with respective constructs and purified from serum-free culture medium using Gelatin Sepharose 4B (GE Healthcare) as described in [29, 35]. Following activation with APMA (Sigma-Aldrich), the amount of active enzyme was determined by active site titration using GM6001 (Sigma-Aldrich). The kcat/KM values of 100 peptides derived from phage substrates […] were determined in triplicate as described in [27].
(§3) Supplementary file pcbi.1008101.s010.xlsx: S8 Table Table of 100 peptide set derived from substrate phage selections of MMP-2 and 9, for which kcat/KM values were experimentally determined. […]

MMP-2 [6] = biological target: T1, MMP-2 (Homo sapiens, UniProt P08253); assay: as above; type: biochemical; details: synthetic hexamer peptides; recombinant MMP-2 catalytic domain, APMA-activated; determined in triplicate as described in ref 27
T1 construct: The recombinant catalytic domains of MMP-2 and -9 were expressed in HEK293 cells; made in house; host or cells: HEK293 cells, stably transfected; purified from serum-free medium on Gelatin Sepharose 4B
T1 sequence (P08253 110-446 limits assumed): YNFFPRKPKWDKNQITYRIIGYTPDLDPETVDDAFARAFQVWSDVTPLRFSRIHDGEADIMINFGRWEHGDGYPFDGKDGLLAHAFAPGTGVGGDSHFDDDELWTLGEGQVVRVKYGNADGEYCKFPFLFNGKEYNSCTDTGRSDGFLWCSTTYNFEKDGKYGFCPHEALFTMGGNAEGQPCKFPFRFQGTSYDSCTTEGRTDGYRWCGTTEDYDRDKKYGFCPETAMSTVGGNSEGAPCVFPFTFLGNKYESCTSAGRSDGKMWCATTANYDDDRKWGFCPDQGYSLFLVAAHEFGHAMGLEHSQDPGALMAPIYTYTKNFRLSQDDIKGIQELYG
Description: as §1, §2, §3

Substance	relative probability (RP) (acc.to MMP9) (MMP-9 [1])	isotopic enrichment (log2(ratio)) (acc.to MMP2) (MMP-2 [2])	isotopic enrichment (log2(ratio)) (acc.to MMP9) (MMP-9 [3])	isotopic enrichment (log2(ratio)) (MMP-9 [3])	relative probability (RP) (acc.to MMP2) (MMP-2 [4])	relative probability (RP) (MMP-9 [1]; MMP9, RP of the P3-P1' tetramer contained in the hexamer substrate (substrate phage display, NGS))	relative probability (RP) (MMP-2 [4]; RP of the P3-P1' tetramer cluster contained in the hexamer, 200 nM MMP-2, 2 h, 37°C, two rounds of selection)	kcat/Km (MMP-9 [5])	kcat/Km (MMP-2 [6])
DSTMN-MLGGGG	6.67	0.8797 log2(ratio)	1.618 log2(ratio)	1.618	0	–	–	–	–
KSIYY-ITGESK [MS detected cleavage site in Heat shock protein HSP 90-beta (P08238)]	14.54	0.3785 log2(ratio)	3.962 log2(ratio)	3.962	–	–	–	–	–
VVPWP-HVEGVE [MS detected cleavage site in N-acetylgalactosaminyltransferase 7 (Q86SF2)]	15.08	1.195 log2(ratio)	3.516 log2(ratio)	3.516	0	–	–	–	–
LPPDH-LNGVKL	13.06	1.257 log2(ratio)	2.07 log2(ratio)	2.07	2.08	–	–	–	–
KPPRL-VGGPMD [MS detected cleavage site in Cystatin-C (P01034)]	7.12	0.8156 log2(ratio)	1.9855 log2(ratio)	1.9855	0.07	–	–	–	–
GKPFK-IQVLVE [MS detected cleavage site in Galectin-3 (P17931)]	34.84	0.7991 log2(ratio)	1.459 log2(ratio)	1.459	1.13	–	–	–	–
KHIYY-ITGETK [MS detected cleavage site in Heat shock protein HSP 90-alpha (P07900)]	14.54	0.7225 log2(ratio)	3.338 log2(ratio)	3.338	0.69	–	–	–	–
DRKPKA	–	–	–	–	–	1.5839	0.3523	0 M⁻¹ s⁻¹	0 M⁻¹ s⁻¹
QQPFA-SVMTDE [MS detected cleavage site in Semaphorin-3D (O95025)]	24.05	0.2016 log2(ratio)	2.583 log2(ratio)	2.583	3.01	–	–	–	–
FCPMA-AHEEIC [MS detected cleavage site in Fibronectin (P02751)]	16.94	0.5261 log2(ratio)	1.774 log2(ratio)	1.774	3.68	–	–	–	–
NHIRY-VISQGN [MS detected cleavage site in Fibrillin-2 (P35556)]	10.4	1.367 log2(ratio)	3.134 log2(ratio)	3.134	0.96	–	–	–	–
